In patent US20190382432A1 (Synbias Pharma AG, priority 2013, published 2019):
Counter-ions that a name gives are not always drawn. Marks after values point to notes of the source that are not given here.

How the values were obtained:
Assay type in all cases: physicochemical
[1] = Particle size distribution by laser diffraction analysis (Mastersizer 2000); details: wet laser diffraction in acetone
Description: Laser diffraction analysis was performed in form of wet laser diffraction in acetone: 1750 rpm, 3×20 s cycle time, 60 s background time, without sonication, and 5 min stirring time using a Mastersizer 2000 Particle Size Analyzer (Malvern Instruments Ltd., Malvern, UK) according to the manufacturer's instructions.

[2] = Thermostability under stress conditions (storage at 100 °C for one month), HPLC
Description: Sample S was prepared according to the present invention, as described in Example 3 above. Sample M1 was prepared according to Example 1 of WO 2012/163508 A1, as described in Example 7 above. Finally, Sample M2 was prepared according to Example 2 of WO 2012/163508 A1, as described in Example 7 above.
The samples were exposed to a temperature of 100° C. for the time period (in weeks) indicated. The testing was performed as described in the ICH Guideline Q1A (R2) (cf. above). The amount of the degradation product (i.e. doxorubicinone) produced as well as those of various impurities (i.e., doxorubicin and four different impurities of yet unknown identity; all given in % (w/w); “n.d.”=not determined) was determined by HPCL analysis (“LT”=less than).

[3] = Hygroscopic capacity: water content by Karl-Fischer titration after exposure to temperature and relative humidity; details: 25 or 40 °C, 40-90% rh; data not shown
Description: Coulometric Karl-Fischer titration (KFT; for determining the water content) was performed with an external drying oven (Metrohm 707 KF; operated at 140° C. with N2 purge). The samples were precisely weighed on an analytical balance (10^−5 g).
The testing was performed as described in the ICH guidelines.

[4] = Thermostability on storage at 25, 40 and 100 °C per ICH Q1A (R2), HPLC; details: 25, 40, 100 °C; data not shown
Description: HPLC and GC analyses were performed according to standard protocols.
The testing was performed as described in the ICH guidelines (cf. inter alia ICH Guideline Q1A (R2)).

Row | SMILES | Doxorubicin (NMT 1%) ([2]; 0 weeks) | Doxorubicinone (Aglycone) (NMT 1%) ([2]; 0 weeks) | Total Impurities (NMT 2%) ([2]; 0 weeks) | Doxorubicin (NMT 1%) ([2]; 1 week, hydrochloride) | Doxorubicinone (Aglycone) (NMT 1%) ([2]; 1 week, hydrochloride) | Total Impurities (NMT 2%) ([2]; 1 week, hydrochloride) | Unknown impurity RRT 1.7 (NMT 0.15%) ([2]; 1 week, hydrochloride) | Doxorubicin (NMT 1%) ([2]; 2 weeks) | Doxorubicinone (Aglycone) (NMT 1%) ([2]; 2 weeks, hydrochloride) | Total Impurities (NMT 2%) ([2]; 2 weeks, hydrochloride) | Unknown impurity RRT 1.2 (NMT 0.15%) ([2]; 2 weeks, hydrochloride) | Unknown impurity RRT 1.6 (NMT 0.15%) ([2]; 2 weeks, hydrochloride) | Unknown impurity RRT 1.7 (NMT 0.15%) ([2]; 2 weeks, hydrochloride) | Doxorubicin (NMT 1%) ([2]; 3 weeks, hydrochloride) | Doxorubicinone (Aglycone) (NMT 1%) ([2]; 3 weeks, hydrochloride) | Total Impurities (NMT 2%) ([2]; 3 weeks, hydrochloride) | Unknown impurity RRT 1.2 (NMT 0.15%) ([2]; 3 weeks, hydrochloride) | Unknown impurity RRT 1.6 (NMT 0.15%) ([2]; 3 weeks, hydrochloride) | Unknown impurity RRT 1.7 (NMT 0.15%) ([2]; 3 weeks, hydrochloride) | Doxorubicin (NMT 1%) ([2]; 4 weeks) | other results
1 | COc1cccc2c1C(=O)c1c(O)c3c(c(O)c1C2=O)C[C@@](O)(C(=O)CO)C[C@@H]3O[C@H]1C[C@H](N)[C@H](O)[C@H](C)O1 [S, epirubicin hydrochloride] | 0.29 % (w/w) | < 0.05 % (w/w) | 0.30 % (w/w) | 0.28 % (w/w) | 0.39 % (w/w) | 0.80 % (w/w) | 0.08 % (w/w) | 0.32 % (w/w) | 0.40 % (w/w) | 0.90 % (w/w) | 0.07 % (w/w) | 0.05 % (w/w) | 0.09 % (w/w) | 0.32 % (w/w) | 0.46 % (w/w) | 1.10 % (w/w) | 0.08 % (w/w) | 0.12 % (w/w) | 0.13 % (w/w) | 0.33 % (w/w) | D(v/0.5), mean diameter based on the volume of the particles ([1]; listed as Sample 3, hydrochloride): 25.25 μm; Doxorubicinone (Aglycone) (NMT 1%) ([2]; 4 weeks, hydrochloride): 0.49 % (w/w); Total Impurities (NMT 2%) ([2]; 4 weeks, hydrochloride): 1.3* % (w/w); Total amount of unknown impurities ([2]; 4 weeks, hydrochloride): 0.48 % (w/w); Unknown impurity RRT 1.1 (NMT 0.15%) ([2]; 4 weeks, hydrochloride): 0.06 % (w/w); Unknown impurity RRT 1.2 (NMT 0.15%) ([2]; 4 weeks, hydrochloride): 0.11 % (w/w); Unknown impurity RRT 1.6 (NMT 0.15%) ([2]; 4 weeks, hydrochloride): 0.15 % (w/w); Unknown impurity RRT 1.7 (NMT 0.15%) ([2]; 4 weeks, hydrochloride): 0.15 % (w/w); Degradation under stress conditions compared with M1 and M2, in words ([2]; one month): less pronounced degradation; Hygroscopic capacity compared with the Example 1 monohydrate (TABLE 6-1), in words [3]: almost identical results; Thermostability compared with the Example 1 monohydrate (TABLE 5-1), in words [4]: almost identical results
2 | COc1cccc2c1C(=O)c1c(O)c3c(c(O)c1C2=O)C[C@@](O)(C(=O)CO)C[C@@H]3O[C@H]1C[C@H](N)[C@H](O)[C@H](C)O1 [Example M2, epirubicin hydrochloride] | 0.29 % (w/w) | < 0.05 % (w/w) | 0.30 % (w/w) | 0.27 % (w/w) | 0.54 % (w/w) | 1.30 % (w/w) | 0.14 % (w/w) | 0.32 % (w/w) | 0.59 % (w/w) | 1.70 % (w/w) | 0.12 % (w/w) | 0.21 % (w/w) | 0.18 % (w/w) | 0.32 % (w/w) | 0.61 % (w/w) | 1.80 % (w/w) | 0.13 % (w/w) | 0.27 % (w/w) | 0.22 % (w/w) | 0.33 % (w/w) | D(v/0.5), mean diameter based on the volume of the particles ([1]; listed as Sample 2, hydrochloride): 9.04 μm; Unknown impurity RRT 1.2 (NMT 0.15%) ([2]; 1 week, hydrochloride): 0.12 % (w/w); Unknown impurity RRT 1.6 (NMT 0.15%) ([2]; 1 week, hydrochloride): 0.12 % (w/w); Unknown impurity RRT 1.1 (NMT 0.15%) ([2]; 2 weeks, hydrochloride): 0.14 % (w/w); Unknown impurity RRT 1.1 (NMT 0.15%) ([2]; 3 weeks, hydrochloride): 0.13 % (w/w); Doxorubicinone (Aglycone) (NMT 1%) ([2]; 4 weeks, hydrochloride): 0.60 % (w/w); Total Impurities (NMT 2%) ([2]; 4 weeks, hydrochloride): 2.1* % (w/w); Total amount of unknown impurities ([2]; 4 weeks, hydrochloride): 1.1 % (w/w); Unknown impurity RRT 1.1 (NMT 0.15%) ([2]; 4 weeks, hydrochloride): 0.21 % (w/w); Unknown impurity RRT 1.2 (NMT 0.15%) ([2]; 4 weeks, hydrochloride): 0.16 % (w/w); Unknown impurity RRT 1.6 (NMT 0.15%) ([2]; 4 weeks, hydrochloride): 0.39 % (w/w); Unknown impurity RRT 1.7 (NMT 0.15%) ([2]; 4 weeks, hydrochloride): 0.26 % (w/w)
